The experiment concerns the target T1, MAGL (Homo sapiens, UniProt Q99685).
T1 sequence (Q99685 1-303): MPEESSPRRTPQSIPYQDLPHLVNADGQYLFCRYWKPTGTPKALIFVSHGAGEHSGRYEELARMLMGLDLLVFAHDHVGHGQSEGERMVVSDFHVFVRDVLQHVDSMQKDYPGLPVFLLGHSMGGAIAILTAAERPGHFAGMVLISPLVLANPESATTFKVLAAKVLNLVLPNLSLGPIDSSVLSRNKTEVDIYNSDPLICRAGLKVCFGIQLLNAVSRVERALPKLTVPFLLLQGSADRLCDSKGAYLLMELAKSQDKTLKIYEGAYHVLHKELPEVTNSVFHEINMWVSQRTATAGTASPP
As to the kind of experiment: 2-AG assay (MAGL inhibitory activity, hydrolysis of 2-arachidonoylglycerol followed by mass spectrometry). Type of experiment: biochemical. The settings on record: 50 pM MAGL, 8 μM 2-arachidonoylglycerol, 15 min preincubation, 30 min incubation at RT, concentration range 12.5 μM to 0.8 pM. Here is the method: Compounds were profiled for MAGL inhibitory activity by determining the enzymatic activity by following the hydrolysis of the natural substrate 2-arachidonoylglycerol resulting in arachidonic acid, which can be followed by mass spectrometry. This assay is hereinafter abbreviated “2-AG assay”.
The 2-AG assay was carried out in 384 well assay plates (PP, Greiner Cat #784201) in a total volume of 20 μL. Compound dilutions were made in 100% DMSO (VWR Chemicals 23500.297) in a polypropylene plate in 3-fold dilution steps to give a final concentration range in the assay from 12.5 μM to 0.8 pM. 0.25 μL compound dilutions (100% DMSO) were added to 9 μL MAGL in assay buffer (50 mM TRIS (GIBCO, 15567-027), 1 mM EDTA (Fluka, 03690-100 mL), 0.01% (v/v) Tween. After shaking, the plate was incubated for 15 min at RT. To start the reaction, 10 μL 2-arachidonoylglycerol in assay buffer was added. The final concentrations in the assay was 50 pM MAGL and 8 μM 2-arachidonoylglyerol. After shaking and 30 min incubation at RT, the reaction was quenched by the addition of 40 μL of ACN containing 4 μM of d8-arachidonic acid. The amount of arachidonic acid was traced by an online SPE system (Agilent Rapidfire) coupled to a triple quadrupole mass spectrometer (Agilent 6460). A C18 SPE cartridge (G9205A) was used in an ACN/water liquid setup. The mass spectrometer was operated in negative electrospray mode following the mass transitions 303.1→259.1 for arachidonic acid and 311.1→267.0 for d8-arachidonic acid. The activity of the compounds was calculated based on the ratio of intensities [arachidonic acid/d8-arachidonic acid].

Regarding `O=C1N[C@H](CCC(=O)N2CC(c3ccc(-c4ccc(F)cc4F)cc3)C2)CO1` [Example 24, (4R)-4-[3-[3-[4-(2,4-Difluorophenyl)phenyl]azetidin-1-yl]-3-oxo-propyl]oxazolidin-2-one], the IC50 (in general, the concentration needed to halve the response being measured) was 2 nM.

Turning to `CC(C)(Oc1ccc(C2CN(C(=O)CC[C@@H]3COC(=O)N3)C2)cc1)C(F)(F)F` [Example 25, (4R)-4-[3-Oxo-3-[3-[4-(2,2,2-trifluoro-1,1-dimethyl-ethoxy)phenyl]azetidin-1-yl]propyl]oxazolidin-2-one], the IC50 amounted to 1 nM. Against the preceding molecule, the IC50 is about 2-fold lower.

In turn, `O=C1N[C@H](CCC(=O)N2CC(OCc3ccc(S(F)(F)(F)(F)F)cc3F)C2)CO1` [Example 26, (4R)-4-[3-[3-[[2-Fluoro-4-(pentafluoro-λ^6-sulfanyl)phenyl]methoxy]azetidin-1-yl]-3-oxo-propyl]oxazolidin-2-one] came in with an IC50 of 4 nM. This IC50 lies about 4-fold higher than the previous one.

In turn, `O=C1N[C@H](CCC(=O)N2CC3(CC(Cc4ccc(F)cc4F)C3)C2)CO1` [Example 27, (4R)-4-[3-[6-[(2,4-Difluorophenyl)methyl]-2-azaspiro[3.3]heptan-2-yl]-3-oxo-propyl]oxazolidin-2-one] registered a 50% inhibitory concentration (IC50) of 0.5 nM.

The molecule `O=C1N[C@H](CCC(=O)N2CC(c3ccc(Oc4ccccc4Cl)nc3)C2)CO1` [Example 28, (4R)-4-[3-[3-[6-(2-Chlorophenoxy)-3-pyridyl]azetidin-1-yl]-3-oxo-propyl]oxazolidin-2-one] gave a half-maximal inhibitory concentration (IC50) of 10 nM.

As for `O=C1N[C@H](CCC(=O)N2CC3(CC(Oc4ccc(F)cc4Cl)C3)C2)CO1` [Example 29, (4R)-4-[3-[6-(2-Chloro-4-fluoro-phenoxy)-2-azaspiro[3.3]heptan-2-yl]-3-oxo-propyl]oxazolidin-2-one], inhibition was half-maximal at 6 nM (IC50).

`O=C1N[C@H](CCC(=O)N2CC(c3ccc(Oc4ccc(F)cc4)cc3)C2)CO1` [Example 30, (4R)-4-[3-[3-[4-(4-Fluorophenoxy)phenyl]azetidin-1-yl]-3-oxo-propyl]oxazolidin-2-one] came in with a half-inhibitory concentration (IC50) of 1 nM.

The molecule `O=C1N[C@H](CCC(=O)N2CC(c3ccc(Oc4ccc(OC(F)(F)F)cc4)nc3)C2)CO1` [Example 31, (4R)-4-[3-Oxo-3-[3-[6-[4-(trifluoromethoxy)phenoxy]-3-pyridyl]azetidin-1-yl]propyl]oxaazolidin-2-one] had an IC50 of 83 nM. This IC50 lies about 83-fold higher than the previous one.

In the case of `O=C1N[C@H](CCC(=O)N2CC3(CC(Oc4cncc(C(F)(F)F)n4)C3)C2)CO1` [Example 32, (4R)-4-[3-Oxo-3-[6-[6-(trifluoromethyl)pyrazin-2-yl]oxy-2-azaspiro[3.3]heptan-2-yl]propyl]oxazolidin-2-one], the IC50 was determined as 17 nM.

`O=C1N[C@H](CCC(=O)N2CC(C#Cc3cccc(Cl)c3)C2)CO1` [Example 33, (4R)-4-[3-[3-[2-(3-Chlorophenyl)ethynyl]azetidin-1-yl]-3-oxo-propyl]oxazolidin-2-one] displayed an IC50 of 12 nM.

`O=C1N[C@H](CCC(=O)N2CC(c3ccc(N4CCC(C(F)(F)F)C4)nc3)C2)CO1` (stereo partly drawn) [Example 34, (4R)-4-[3-Oxo-3-[3-[6-[3-(trifluoromethyl)pyrrolidin-1-yl]-3-pyridyl]azetidin-1-yl]propyl]oxazolidin-2-one] showed an IC50 of 14 nM.

Regarding `CC(C[C@@H]1COC(=O)N1)C(=O)N1CC(OCc2ccc(C(F)(F)F)cc2F)C1` (stereo partly drawn) [Example 35, (4R)-4-[3-[3-[[2-Fluoro-4-(trifluoromethyl)phenyl]methoxy]azetidin-1-yl]-2-methyl-3-oxo-propyl]oxazolidin-2-one], the half-inhibitory concentration (IC50) was 13 nM.

Molecule `O=C(CCc1cnn[nH]1)N1CC(OCc2ccc(C(F)(F)F)cc2F)C1` [Example 36, 1-(3-((2-Fluoro-4-(trifluoromethyl)benzyl)oxy)azetidin-1-yl)-3-(1H-1,2,3-triazol-5-yl)propan-1-one] came in with an IC50 of 4030 nM.

`O=C(CCc1cnn[nH]1)N1CC(c2ccc(C3(C(F)(F)F)CC3)cc2)C1` [Example 37, 3-(1H-1,2,3-Triazol-5-yl)-1-(3-(4-(1-(trifluoromethyl)cyclo-propyl)phenyl)azetidin-1-yl)propan-1-one] displayed an IC50 of 339 nM.

Regarding `CC(C)(Oc1ccc(C2CN(C(=O)CCc3cnn[nH]3)C2)cc1)C(F)(F)F` [Example 38, 3-(1H-1,2,3-Triazol-5-yl)-l-(3-(4-((1,1,1-trifluoro-2-methylpropan-2-yl)oxy)phenyl)azetidin-1-yl)propan-1-one], the IC50 is 234 nM.

On to `O=C(CCCc1cnn[nH]1)N1CC(OCc2ccc(C(F)(F)F)cc2F)C1` [Example 39, 1-[3-[[2-Fluoro-4-(trifluoromethyl)phenyl]methoxy]azetidin-1-yl]-4-(1H-triazol-5-yl)butan-1-one], for which the half-maximal inhibitory concentration (IC50) was determined as 58 nM.

`O=C(CCCc1cnn[nH]1)N1CC(c2ccc(C3(C(F)(F)F)CC3)cc2)C1` [Example 40, 4-(1H-Triazol-5-yl)-1-[3-[4-[1-(trifluoro-methyl)cyclopropyl]phenyl]azetidin-1-yl]butan-1-one] came in with an IC50 of 21 nM.

The molecule `CC(C)(Oc1ccc(C2CN(C(=O)CCCc3cnn[nH]3)C2)cc1)C(F)(F)F` [Example 41, 4-(1H-Triazol-5-yl)-1-[3-[4-(2,2,2-trifluoro-1,1-dimethyl-ethoxy)phenyl]azetidin-1-yl]butan-1-one] yielded an IC50 of 23 nM.

Molecule `O=C(CCCc1cnn[nH]1)N1CC(c2ccc(Oc3ccc(OC(F)(F)F)cc3)nc2)C1` [Example 42, 4-(1H-Triazol-5-yl)-1-[3-[6-[4-(trifluoro-methoxy)phenoxy]-3-pyridyl]azetidin-1-yl]butan-1-one] came in with an IC50 of 218 nM.

Take `O=C(CCCc1cnn[nH]1)N1CC2(CC(Oc3cncc(C(F)(F)F)n3)C2)C1` [Example 43, 4-(1H-Triazol-5-yl)-1-[6-[6-(trifluoromethyl)pyrazin-2-yl]oxy-2-azaspiro[3.3]heptan-2-yl]butan-1-one]: the IC50 came out at 6950 nM.

In turn, `O=C(CCCc1cnn[nH]1)N1CC(C#Cc2cccc(Cl)c2)C1` [Example 44, 1-[3-[2-(3-Chlorophenyl)ethynyl]azetidin-1-yl]-4-(1H-triazol-5-yl)butan-1-one] yielded a 50% inhibitory concentration (IC50) of 61 nM.

`O=C(CCCc1cnn[nH]1)N1CC(c2ccc(N3CC(OCC(F)(F)F)C3)cc2)C1` [Example 46, 4-(1H-Triazol-5-yl)-1-[3-[4-[3-(2,2,2-trifluoroethoxy)azetidin-1-yl]phenyl]azetidin-1-yl]butan-1-one] had a half-inhibitory concentration (IC50) of 323 nM. This IC50 is about 5.3-fold higher than that of the molecule before.

`O=C(CCc1ccn[nH]1)N1CC(OCc2ccc(C(F)(F)F)cc2F)C1` [Example 47, 1-[3-[[2-Fluoro-4-(trifluoromethyl)phenyl]methoxy]azetidin-1-yl]-3-(1H-pyrazol-5-yl)propan-1-one] came in with a half-inhibitory concentration (IC50) of 430 nM.

`O=C(CCc1cccc(=O)[nH]1)N1CC(OCc2ccc(C(F)(F)F)cc2F)C1` [Example 48, 6-[3-[3-[[2-Fluoro-4-(trifluoromethyl)phenyl]methoxy]azetidin-1-yl]-3-oxo-propyl]-1H-pyridin-2-one] had an IC50 of 598 nM.

Molecule `O=C1CCCC(CCC(=O)N2CC(OCc3ccc(C(F)(F)F)cc3F)C2)N1` (centres unmarked) [Example 49, 6-[3-[3-[[2-Fluoro-4-(trifluoromethyl)phenyl]methoxy]azetidin-1-yl]-3-oxo-propyl]piperidin-2-one] registered an IC50 of 605 nM.

`O=C1CC[C@@H](COC(=O)N2CC(OCc3ccc(C(F)(F)F)cc3F)C2)N1` [Example 52, [(2S)-5-Oxopyrrolidin-2-yl]methyl 3-[[2-fluoro-4-(trifluoromethyl)phenyl]methoxy]azetidine-1-carboxylate] had an IC50 of 167 nM. This IC50 is about 3.6-fold lower than that of the molecule before.

These data come from patent US11981661B2, “Heterocyclic compounds” (Hoffmann-La Roche Inc., priority 2020, dated 2024).
